Consider one compound from patent US20240216410A1, “METHODS AND COMPOSITIONS FOR TREATING CANCER THERAPY-INDUCED NEUTROPENIC FEVER AND/OR GVHD” (BOARD OF REGENTS, THE UNIVERSITY OF TEXAS SYSTEM, priority 2021, published 2024).

Each structure is given as a SMILES string.

The test system of series [1] is neutrophils and dendritic cells in the colon. Put plainly: Murine GVHD model: colonic infiltration by neutrophils and dendritic cells. The format is in vivo. Conditions: meropenem-treated mice with GVHD. From the text: Altogether, these findings indicate that, in some cases, meropenem treatment leads to compromise of the colonic mucus layer, increased bacterial translocation and an aggravated inflammatory response.
Histological and immunohistochemistry analysis. […] Pathology scores were quantified by a blinded pathologist. […] Sections were imaged using an APERIO® AT2.
Lamina propria hematopoietic cell dissociation. Murine colons were isolated, dissected longitudinally and then on a shaker in 2% fetal bovine serum in PBS with 1 mM DL-dithiothreitol (Bioworld) at 37 °C for 20 min and subsequently incubated with 1.3 mM EDTA at 37° C. for 40 min. They were rinsed twice and digested with 0.3 mg/ml of type IV collagenase (C5138, SIGMA-ALDRICH®) at 37 °C for 45 min, homogenized, filtered, and washed.
Flow cytometric analysis. Monoclonal antibodies conjugated with fluorescein isothiocynate, phycoerythrin, phycoerythrin-Cy7, peridinin-chlorophyll protein complexes, allophycocyanin, or allophycocyanin-Cy7 were purchased from Tonbo Biosciences (San Diego, CA), EBIOSCIENCE™ (San Diego, CA), or BIOLEGEND® (San Diego, CA.). […] In flow cytometric analysis, at least 100,000 live samples were analyzed using BD LSRFORTESSA™ X-20 (BD Biosciences) and FlowJo software (Trec Star, OR). […]

A short description of series [2]: Murine GVHD model: colonic luminal carbohydrates by acid hydrolysis and IC-MS. Particulars: day 18; mice with GVHD. Format: in vivo. From the text: BT is known to be a versatile utilizer of a variety of carbohydrate sources derived from the diet, including xylose via the xylose isomerase pathway, as well as host glycans. […] Host mucin glycans are particularly low on the metabolic hierarchy and are typically targeted only after other dietary polysaccharides have been depleted (43). […] Thus, in some embodiments, levels of soluble carbohydrates in the colonic lumen may be perturbed by meropenem treatment, given that it is shown herein that meropenem depletes the abundance of commensal Clostridia, which function to metabolize dietary fibers and starches (45). Using acid hydrolysis followed by ion chromatography-mass spectrometry (IC-MS), levels of monosaccharide subunits comprising soluble luminal polysaccharides were characterized in the colon of mice.
Carbohydrates analysis by IC-MS. To determine the relative abundance of carbohydrates in mouse feces samples, extracts were prepared and analyzed by ultra-HRMS. Fecal pellets were homogenized with a […]® Tissue Homogenizer. Metabolites were extracted using 1 mL ice-cold 80/20 (v/v) methanol/water. Extracts were centrifuged at 17,000 g for 5 min at 4° C., and supernatants were transferred to clean tubes, followed by evaporation to dryness under nitrogen. Dried extracts were reconstituted in deionized water, and 5 μL was injected for analysis by IC-MS. […]

In series [3] the test system is Bacteroides thetaiotaomicron (MDA-JAX BT001). The series can be described thus: MIC of meropenem by MIC test strips. Format: cell-based. Particulars: mouse-derived BT. The protocol: (§1) The minimum inhibitory concentration (MIC) of meropenem against murine BT was quantified using MIC test strips (Table 4).
(§2) Culturing of bacteria. Mouse-derived BT (MDA-JAX BT001), Enterococcus faecalis (MDA-JAX EF001) and Clostridium disporicum (MDA-JAX CD001), Clostridium saudiense (MDA-JAX CS001), and Lachnospiraceae unclassified (MDA-JAX LS001) were isolated and cultured from mouse stool samples suspended in 1 ml of chilled 20% anaerobic glycerol in a Whitley anaerobic chamber (10% H2, 5% CO2 and 85% N2). Human-derived BT (ATCC 29148) was purchased from ATCC. Bacterial number was quantified using a Nexcelom Cellometer cell counter with SYTO™ BC dye and propidium iodide. For measuring MICs against meropenem, bacteria were cultured on BYE plates including 5% sterilized rumen fluid (Fisher Scientific) with MIC test strips (LIOFILCHEM™ MTS™ Meropenem [MRP] 0.016-256 μg/mL, THERMO FISHER […]™)). Bacterial growth experiments were in liquid media were performed in a novel bacterial media, BYEM10, composed of a hybrid of BHI and M10 supplemented with yeast extract (Table 5).

Series [4] relates to Bacteroides thetaiotaomicron (ATCC 29148). The series can be described thus: MIC of meropenem by MIC test strips. The format is cell-based. Particulars: ATCC29148, human-derived BT. How it is done: as §1, §2
Series [5] has as its system Clostridium disporicum (MDA-JAX CD001). Put plainly: MIC of meropenem by MIC test strips. Particulars: mouse-derived. Format: cell-based. The protocol:
as §1, §2

The subject of series [6] is Lachnospiraceae unclassified (MDA-JAX LS001). Put plainly: MIC of meropenem by MIC test strips. Format: cell-based. Conditions: mouse-derived. The protocol:
as §1, §2

Series [7] deals with Enterococcus faecalis (MDA-JAX EF001). Put plainly: MIC of meropenem by MIC test strips. Conditions: mouse-derived. The format is cell-based. How it is done:
as §1, §2

Series [8] has as its system Clostridium saudiense (MDA-JAX CS001). Put plainly: MIC of meropenem by MIC test strips. The format is cell-based. Conditions: mouse-derived. The protocol: as §1, §2

In the case of `C[C@@H](O)[C@H]1C(=O)N2C(C(=O)O)=C(S[C@@H]3CN[C@H](C(=O)N(C)C)C3)[C@H](C)[C@H]12` [meropenem], in series [1], the “colonic tissue infiltration by neutrophils and dendritic cells” value was “marked colonic tissue infiltration by neutrophils and dendritic cells”. Besides, the “concentrations of soluble luminal polysaccharide monosaccharide subunits” value in series [2] is “significantly lower concentrations of arabinose- and xylose-derived polysaccharides”. Besides, the minimal inhibitory concentration (MIC) (as a rule, the smallest concentration in the dilution series that meets the test's criterion for growth inhibition) in series [3] is 4 µg/mL; in series [4], 6 µg/mL; in series [5], 0.094 µg/mL; in series [6], 0.38 µg/mL; in series [7], 12 µg/mL; in series [8], 0.38 µg/mL.
